Like-named read-outs stand apart in the source and are kept apart here.
Assay: Phase I study CXR1002-001: plasma pharmacokinetics (LC-MS/MS)
Assay type: in vivo, human
Details: human, plasma, po, read-out: Concentration (plasma level); for concentration at 528 hr: Time 528 hr (Day 23); for concentration at 672 hr: Time 672 hr (Day 29); for concentration at 696 hr: Time 696 hr (Day 30); for concentration at 864 hr: Time 864 hr (Day 37); for concentration at 24 hr: Time 24 hr (Day 2); for concentration at 168 hr: Time 168 hr (Day 8); for concentration at 336 hr: Time 336 hr (Day 15); for concentration at 360 hr: Time 360 hr (Day 16)
Excerpt: PK samples, PD (fasting) samples, blood glucose, and blood triglyceride samples, were taken over a 6-week period.
Dose limiting toxicity (DLT) will be based on the toxicity assessments over the first 3-week period of the repeat dosing schedule. PK samples (single blood sample) were taken on the following basis: • Every 6 weeks during the repeat dosing phase • If dosing is interrupted or stopped, samples will be taken at intervals according to patient convenience • PK sampling for safety evaluation may take place at any time, as clinically indicated
Plasma samples were collected after the single 50 mg dose at the following timepoints: Pre-dose, and then 0.25, 0.5, 0.75, 1, 1.5, 2, 3, 4, 6, 24, 48, and 72 hours after administration and then once weekly at weeks 2, 3, 4, 5, and 6 (days 8, 15, 22, 29, and 36). For patients treated with the weekly repeat dose, plasma samples were collected at the following timepoints: Pre-dose and then 2, 3, 4 and 24 hours after administration for a total of 6 weeks. Thereafter a single sample was collected every 6 weeks for monitoring of exposure during long term treatment. Plasma samples were processed at site and stored at −80° C. prior to batch shipment to the analytical laboratory.

[1] = 1000 mg, Patient 041, 1000 mg weekly oral dose
[2] = 1000 mg, Patient 042, 1000 mg weekly oral dose
[3] = 1200 mg, Patient 036, 1200 mg weekly oral dose

Structure (SMILES): O=C(O)C(F)(F)C(F)(F)C(F)(F)C(F)(F)C(F)(F)C(F)(F)C(F)(F)F [CXR1002]
- concentration at 528 hr [1]: 703 µM
- concentration at 672 hr [1]: 670 µM
- concentration at 674 hr [1]: 546 µM
- concentration at 675 hr [1]: 740 µM
- concentration at 676 hr (1000 mg, Patient 041, 1000 mg weekly oral dose, Time 676 hr): 802 µM
- concentration at 696 hr [1]: 786 µM
- concentration at 840 hr (1000 mg, Patient 041, 1000 mg weekly oral dose, Time 840 hr (Day 36)): 715 µM
- concentration at 842 hr (1000 mg, Patient 041, 1000 mg weekly oral dose, Time 842 hr): 738 µM
- concentration at 843 hr [1]: 1010 µM
- concentration at 864 hr [1]: 1210 µM
- concentration at 2 hr [2]: 272 µM
- concentration at 3 hr [2]: 359 µM
- concentration at 4 hr [2]: 281 µM
- concentration at 24 hr [2]: 239 µM
- concentration at 168 hr [2]: 251 µM
- concentration at 170 hr (1000 mg, Patient 042, 1000 mg weekly oral dose, Time 170 hr): 391 µM
- concentration at 171 hr (1000 mg, Patient 042, 1000 mg weekly oral dose, Time 171 hr): 461 µM
- concentration at 172 hr (1000 mg, Patient 042, 1000 mg weekly oral dose, Time 172 hr): 436 µM
- concentration at 192 hr (1000 mg, Patient 042, 1000 mg weekly oral dose, Time 192 hr (Day 9)): 502 µM
- concentration at 336 hr [2]: 586 µM
- concentration at 338 hr [2]: 645 µM
- concentration at 339 hr [2]: 675 µM
- concentration at 340 hr [2]: 636 µM
- concentration at 360 hr [2]: 651 µM
- concentration at 504 hr (1000 mg, Patient 042, 1000 mg weekly oral dose, Time 504 hr (Day 22)): 765 µM
- concentration at 506 hr (1000 mg, Patient 042, 1000 mg weekly oral dose, Time 506 hr): 872 µM
- concentration at 507 hr (1000 mg, Patient 042, 1000 mg weekly oral dose, Time 507 hr): 952 µM
- concentration at 508 hr (1000 mg, Patient 042, 1000 mg weekly oral dose, Time 508 hr): 987 µM
- concentration at 528 hr [2]: 1230 µM
- concentration at 672 hr [2]: 1040 µM
- concentration at 674 hr [2]: 1180 µM
- concentration at 675 hr [2]: 1190 µM
- concentration at 696 hr [2]: 1280 µM
- concentration at 840 hr (1000 mg, Patient 042, 1000 mg weekly oral dose, Time 840 hr (Day 36)): 1250 µM
- concentration at 842 hr (1000 mg, Patient 042, 1000 mg weekly oral dose, Time 842 hr): 1140 µM
- concentration at 843 hr [2]: 1180 µM
- concentration at 844 hr (1000 mg, Patient 042, 1000 mg weekly oral dose, Time 844 hr): 1160 µM
- concentration at 864 hr [2]: 1250 µM
- concentration at 2 hr [3]: 443 µM
- concentration at 3 hr [3]: 431 µM
- concentration at 4 hr [3]: 361 µM
- concentration at 24 hr [3]: 708 µM
- concentration at 168 hr [3]: 286 µM
- concentration at 170 h (1200 mg, Patient 036, 1200 mg weekly oral dose, Time 170 hr): 680 µM
- concentration at 171 h (1200 mg, Patient 036, 1200 mg weekly oral dose, Time 171 hr): 678 µM
- concentration at 172 h (1200 mg, Patient 036, 1200 mg weekly oral dose, Time 172 hr): 665 µM
- concentration at 192 h (1200 mg, Patient 036, 1200 mg weekly oral dose, Time 192 hr (Day 9)): 295 µM
- concentration at 336 hr [3]: 557 µM
- concentration at 338 hr [3]: 840 µM
- concentration at 339 hr [3]: 866 µM
- concentration at 340 hr [3]: 930 µM
- concentration at 360 hr [3]: 657 µM
- concentration at 504 h (1200 mg, Patient 036, 1200 mg weekly oral dose, Time 504 hr (Day 22)): 969 µM
- concentration at 506 h (1200 mg, Patient 036, 1200 mg weekly oral dose, Time 506 hr): 1140 µM
- concentration at 507 h (1200 mg, Patient 036, 1200 mg weekly oral dose, Time 507 hr): 1130 µM
- concentration at 508 h (1200 mg, Patient 036, 1200 mg weekly oral dose, Time 508 hr): 1120 µM
- concentration at 840 h (1200 mg, Patient 036, 1200 mg weekly oral dose, Time 840 hr (Day 36)): 948 µM
- concentration at 842 h (1200 mg, Patient 036, 1200 mg weekly oral dose, Time 842 hr): 1250 µM
